The values below are quoted from earlier work in patent US6344444B1 (Nutrition 21, priority 1997, dated 2002).

In data set [1] the test system is cholesterol-induced intimal hyperplasia. The note with it: rabbits, injection or ingestion.
For data set [2], the system named is femoral density. The conditions noted are these: postmenopausal women, injection 50 mg twice weekly, over 14 months.
Data set [3] concerns bone turnover. The note with it: ovariectomized rats, oral.

Take `NCCCC[C@H](N)C(=O)O.O[Si](O)(O)O` [lysine silicate]: the “intimal thickening and fragmentation of arterial elastic fibers” value in data set [1] is on record as “prevented”.

Turning to `C[Si](O)(O)O` [monomethyltrisilanol], the “intimal thickening and fragmentation of arterial elastic fibers” value in data set [1] was “prevented”. In data set [2], the “increase of femoral density (average)” value was 4.7%.

For orthosilicic acid, in data set [3], the bone formation rate entry is “increased” and the bone turnover entry is recorded as “slowed”.
